Source: ChEMBL document CHEMBL3885861, “Open TG-GATES”

Organism: Rattus norvegicus
Test: Open TG-GATES - Regimen: Daily Repeat
Assay type: toxicity, organism-based, Sprague-Dawley
Design: regimen Daily Repeat, gender Male, age 6 weeks
Details: in vivo, po, 30 mg/kg, route gavage, dose level Low; for APTT / Bas / Eos / Fbg / Hb / Ht / Lym / MCH / MCHC / MCV / Mono / Neu / PT / Plat / RBC / Ret / WBC: tissue Blood; for KIDNEY_L / KIDNEY_R / KIDNEY_TOTAL: tissue Kidney; for LIVER: tissue Liver; for A/G / ALP / ALT / AST / BUN / CRE / Ca / Cl / DBIL / GLC / IP / K / LDH / Na / PL / RALB / TBIL / TC / TG / TP / gamma-GTP: tissue Plasma

## Brc1ccccc1 [BROMOBENZENE]
72 h, time 3 day
  TERMINAL_BW: 211.4 g
  APTT: 16.2 s
  Bas: 0%
  Eos: 1%
  Fbg: 274.2 mg/dL
  Hb: 13.2 g/dL
  Ht: 38.9%
  Lym: 76.6%
  MCH: 21.2 pg
  MCHC: 34%
  MCV: 62.4 fL
  Mono: 4.2%
  Neu: 17.8%
  PT: 12 s
  Plat: 113.4 x10_4/uL
  RBC: 624.8 x10_4/ul
  Ret: 7.4%
  WBC: 117.5 x10_2/uL
  KIDNEY_L: 0.9 g
  KIDNEY_R: 0.9 g
  KIDNEY_TOTAL: 1.8 g
  LIVER: 10.6 g
  A/G: 0.9
  ALP: 1588.2 IU/L
  ALT: 54.2 IU/L
  AST: 70.2 IU/L
  BUN: 13.8 mg/dL
  CRE: 0.2 mg/dL
  Ca: 10.4 mg/dL
  Cl: 105.2 meq/L
  DBIL: 0.012 mg/dL
  GLC: 182 mg/dL
  IP: 7.3 mg/dL
  K: 4.1 meq/L
  LDH: 77 IU/L
  Na: 142 meq/L
  PL: 154 mg/dL
  RALB: 2.6 g/dL
  TBIL: 0.05 mg/dL
  TC: 84.6 mg/dL
  TG: 76 mg/dL
  TP: 5.6 g/dL
  gamma-GTP: 1.2 IU/L
[…], time 7 day
  TERMINAL_BW: 250.4 g
  APTT: 16.1 s
  Bas: 0%
  Eos: 1%
  Fbg: 272.4 mg/dL
  Hb: 12.9 g/dL
  Ht: 37.6%
  Lym: 78%
  MCH: 21.3 pg
  MCHC: 34.4%
  MCV: 62 fL
  Mono: 2.6%
  Neu: 18%
  PT: 12.7 s
  Plat: 117.9 x10_4/uL
  RBC: 606.8 x10_4/ul
  Ret: 6.2%
  WBC: 100.6 x10_2/uL
  KIDNEY_L: 1 g
  KIDNEY_R: 1 g
  KIDNEY_TOTAL: 2 g
  LIVER: 12.3 g
  A/G: 0.9
  ALP: 1766.2 IU/L
  ALT: 40.6 IU/L
  AST: 71 IU/L
  BUN: 14.4 mg/dL
  CRE: 0.2 mg/dL
  Ca: 11.1 mg/dL
  Cl: 105.2 meq/L
  DBIL: 0.01 mg/dL
  GLC: 195 mg/dL
  IP: 7 mg/dL
  K: 3.9 meq/L
  LDH: 109 IU/L
  Na: 143.4 meq/L
  PL: 143 mg/dL
  RALB: 2.7 g/dL
  TBIL: 0.042 mg/dL
  TC: 74.6 mg/dL
  TG: 84.4 mg/dL
  TP: 5.8 g/dL
  gamma-GTP: 1.4 IU/L
[…], time 14 day
  TERMINAL_BW: 301.3 g
  APTT: 16 s
  Bas: 0%
  Eos: 0.8%
  Fbg: 316.2 mg/dL
  Hb: 14.2 g/dL
  Ht: 41.2%
  Lym: 81.6%
  MCH: 20.5 pg
  MCHC: 34.5%
  MCV: 59.2 fL
  Mono: 2.6%
  Neu: 14.4%
  PT: 11.7 s
  Plat: 116 x10_4/uL
  RBC: 696.6 x10_4/ul
  Ret: 4.2%
  WBC: 87.7 x10_2/uL
  KIDNEY_L: 1.2 g
  KIDNEY_R: 1.2 g
  KIDNEY_TOTAL: 2.4 g
  LIVER: 14.5 g
  A/G: 0.8
  ALP: 1573.2 IU/L
  ALT: 40 IU/L
  AST: 65 IU/L
  BUN: 15.2 mg/dL
  CRE: 0.2 mg/dL
  Ca: 11 mg/dL
  Cl: 105.6 meq/L
  DBIL: 0.01 mg/dL
  GLC: 191.6 mg/dL
  IP: 6.8 mg/dL
  K: 4.1 meq/L
  LDH: 84.8 IU/L
  Na: 143 meq/L
  PL: 158.2 mg/dL
  RALB: 2.8 g/dL
  TBIL: 0.038 mg/dL
  TC: 74.2 mg/dL
  TG: 159.4 mg/dL
  TP: 6.2 g/dL
  gamma-GTP: 0.8 IU/L
[…], time 28 day
  TERMINAL_BW: 378.5 g
  APTT: 16.4 s
  Bas: 0.2%
  Eos: 1.2%
  Fbg: 305.8 mg/dL
  Hb: 15 g/dL
  Ht: 42.8%
  Lym: 75.6%
  MCH: 19.7 pg
  MCHC: 35%
  MCV: 56.2 fL
  Mono: 3%
  Neu: 19%
  PT: 12.6 s
  Plat: 103.7 x10_4/uL
  RBC: 762.2 x10_4/ul
  Ret: 2.7%
  WBC: 101.5 x10_2/uL
  KIDNEY_L: 1.3 g
  KIDNEY_R: 1.3 g
  KIDNEY_TOTAL: 2.7 g
  LIVER: 16.3 g
  A/G: 0.8
  ALP: 1032.4 IU/L
  ALT: 36 IU/L
  AST: 59.8 IU/L
  BUN: 15.8 mg/dL
  CRE: 0.2 mg/dL
  Ca: 10.7 mg/dL
  Cl: 105.8 meq/L
  DBIL: 0.016 mg/dL
  GLC: 190.2 mg/dL
  IP: 6 mg/dL
  K: 3.8 meq/L
  LDH: 58.6 IU/L
  Na: 142.8 meq/L
  PL: 152.2 mg/dL
  RALB: 2.9 g/dL
  TBIL: 0.034 mg/dL
  TC: 80.6 mg/dL
  TG: 141.4 mg/dL
  TP: 6.5 g/dL
  gamma-GTP: 1 IU/L
